Results reported in patent publication US6809065B2, “Herbicide containing substituted pyrazole derivative as active ingredient” (SDS Biotech K.K., priority 2001, dated 2004).

Tests used:
[1] = system: wheat (Triticum aestivum); assay: Upland field foliage treatment (Test Example 1), crop; type: in vivo; settings: foliage treatment 14th day after sowing, 1 kg active ingredient per hectare, evaluated 21st day, lower index = higher safety
Summary of the method: (§1)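 Foliage application took place two weeks after sowing, at an active-ingredient rate of 1 kg/ha from a water-diluted wettable powder. Rating followed on the 21st day after application, using an index scale on which crop values rise as injury increases.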

[2] = system: soybean (Glycine max); assay: as above; type: in vivo; settings: foliage treatment 14th day after sowing, 1 kg active ingredient per hectare, evaluated 21st day, lower index = higher safety
Summary of the method: as §1

[3] = system: rice (Oryza sative, variety: Koshihikari); assay: Paddy field treatment (Test Example 3), crop; type: in vivo, Oryza sativa; settings: transplanted rice two-leaf period, water surface treatment 10th day after transplantation, 1 kg active ingredient per hectare, evaluated 21st day, lower index = higher safety
Summary of the method: (§2)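 Index scores for herbicidal effect were read 21 days after treatment, higher meaning stronger effect. Treatment was a water-diluted wettable powder dropped onto flooded paddy soil at 1 kg active ingredient per hectare, 10 days after rice transplantation.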

[4] = system: wheat (Triticum aestivum); assay: Upland soil treatment (Test Example 2), crop; type: in vivo; settings: soil surface treatment next day after sowing, 1 kg active ingredient per hectare, evaluated 21st day, lower index = higher safety
Summary of the method: (§3)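 Pre-emergence soil treatment: day after sowing, WP formulation diluted in water, applied uniformly to soil surface at 1 kg a.i./ha. Seeds sown ~1 cm deep in upland soil. Visual index read 21 d after application (weeds: high = effective; crop: low = safe).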

[5] = system: soybean (Glycine max); assay: Upland soil treatment (Test Example 2), crop; type: in vivo; settings: soil surface treatment next day after sowing, 1 kg active ingredient per hectare, evaluated 21st day, lower index = higher safety
Summary of the method: as §3

[6] = system: Digitaria adscendens; assay: Upland field foliage treatment (Test Example 1); type: in vivo; settings: foliage treatment 14th day after sowing, wettable powder, 1 kg active ingredient per hectare, evaluated 21st day after application
Summary of the method: as §1

[7] = system: Setaria viridis; assay: Upland field foliage treatment (Test Example 1); type: in vivo; settings: foliage treatment 14th day after sowing, wettable powder, 1 kg active ingredient per hectare, evaluated 21st day after application
Summary of the method: as §1

[8] = system: Chenopodium album; assay: Upland field foliage treatment (Test Example 1); type: in vivo; settings: foliage treatment 14th day after sowing, wettable powder, 1 kg active ingredient per hectare, evaluated 21st day after application
Summary of the method: as §1

[9] = system: Stellaria media; assay: Upland field foliage treatment (Test Example 1); type: in vivo; settings: foliage treatment 14th day after sowing, wettable powder, 1 kg active ingredient per hectare, evaluated 21st day after application
Summary of the method: as §1

[10] = system: Echinochloa spp.; assay: Paddy field treatment (Test Example 3); type: in vivo, Echinochloa crusgalli; settings: paddy pot, submerged 4 cm, dropped on water surface 10th day after transplantation, 1 kg active ingredient per hectare, evaluated 21st day
Summary of the method: as §2

[11] = system: Digitaria adscendens; assay: Upland soil treatment (Test Example 2); type: in vivo; settings: soil surface treatment next day after sowing, wettable powder, 1 kg active ingredient per hectare, evaluated 21st day after application
Summary of the method: as §3

[12] = system: Setaria viridis; assay: Upland soil treatment (Test Example 2); type: in vivo; settings: soil surface treatment next day after sowing, wettable powder, 1 kg active ingredient per hectare, evaluated 21st day after application
Summary of the method: as §3

[13] = system: Chenopodium album; assay: Upland soil treatment (Test Example 2); type: in vivo; settings: soil surface treatment next day after sowing, wettable powder, 1 kg active ingredient per hectare, evaluated 21st day after application
Summary of the method: as §3

[14] = system: Stellaria media; assay: Upland soil treatment (Test Example 2); type: in vivo; settings: soil surface treatment next day after sowing, wettable powder, 1 kg active ingredient per hectare, evaluated 21st day after application
Summary of the method: as §3

[15] = system: Scirpus juncoides; assay: Paddy field treatment (Test Example 3); type: in vivo; settings: paddy pot, submerged 4 cm, dropped on water surface 10th day after transplantation, 1 kg active ingredient per hectare, evaluated 21st day
Summary of the method: as §2

[16] = system: Monochoria vaginalis; assay: Paddy field treatment (Test Example 3); type: in vivo; settings: paddy pot, submerged 4 cm, dropped on water surface 10th day after transplantation, 1 kg active ingredient per hectare, evaluated 21st day
Summary of the method: as §2

[17] = system: Ammannia multiflora; assay: Paddy field treatment (Test Example 3); type: in vivo; settings: paddy pot, submerged 4 cm, dropped on water surface 10th day after transplantation, 1 kg active ingredient per hectare, evaluated 21st day
Summary of the method: as §2

SMILES	Herbicidal activity Triticum aestivum [1]	Herbicidal activity Glycine max [2]	Herbicidal activity Oryza sativa [3]	Herbicidal activity Triticum aestivum [4]	Herbicidal activity Glycine max [5]	Herbicidal activity Digitaria adscendens [6]	Herbicidal activity Setaria viridis [7]	Herbicidal activity Chenopodium album [8]	Herbicidal activity Stellaria media [9]	Herbicidal activity Echinochloa spp. [10]	Herbicidal activity Digitaria adscendens [11]	Herbicidal activity Setaria viridis [12]	Herbicidal activity Chenopodium album [13]	Herbicidal activity Stellaria media [14]	Herbicidal activity Scirpus juncoides [15]	Herbicidal activity Monochoria vaginalis [16]	Herbicidal activity Ammannia multiflora [17]
COC=C(Cn1nc(-c2cccc(Cl)c2)cc1SC)C(=O)OC [Compound 38]	0 (herbicidal effect of not less than 0% by weight and less than 10% by weight)	1 (herbicidal effect of not less than 10% by weight and less than 30% by weight)	0 (herbicidal effect of not less than 0% by weight and less than 10% by weight)	0 (herbicidal effect of not less than 0% by weight and less than 10% by weight)	0 (herbicidal effect of not less than 0% by weight and less than 10% by weight)	4 (herbicidal effect of not less than 70% by weight and less than 90% by weight)	4 (herbicidal effect of not less than 70% by weight and less than 90% by weight)	5 (herbicidal effect of not less than 90% by weight)	5 (herbicidal effect of not less than 90% by weight)	3 (herbicidal effect of not less than 50% by weight and less than 70% by weight)	4 (herbicidal effect of not less than 70% by weight and less than 90% by weight)	4 (herbicidal effect of not less than 70% by weight and less than 90% by weight)	4 (herbicidal effect of not less than 70% by weight and less than 90% by weight)	4 (herbicidal effect of not less than 70% by weight and less than 90% by weight)	3 (herbicidal effect of not less than 50% by weight and less than 70% by weight)	4 (herbicidal effect of not less than 70% by weight and less than 90% by weight)	3 (herbicidal effect of not less than 50% by weight and less than 70% by weight)
COC=C(Cn1nc(-c2cc(Cl)ccc2Cl)c(Br)c1C)C(=O)OC [Compound 31]	1 (herbicidal effect of not less than 10% by weight and less than 30% by weight)	1 (herbicidal effect of not less than 10% by weight and less than 30% by weight)	1 (herbicidal effect of not less than 10% by weight and less than 30% by weight)	0 (herbicidal effect of not less than 0% by weight and less than 10% by weight)	0 (herbicidal effect of not less than 0% by weight and less than 10% by weight)	5 (herbicidal effect of not less than 90% by weight)	5 (herbicidal effect of not less than 90% by weight)	5 (herbicidal effect of not less than 90% by weight)	5 (herbicidal effect of not less than 90% by weight)	5 (herbicidal effect of not less than 90% by weight)	5 (herbicidal effect of not less than 90% by weight)	5 (herbicidal effect of not less than 90% by weight)	5 (herbicidal effect of not less than 90% by weight)	5 (herbicidal effect of not less than 90% by weight)	5 (herbicidal effect of not less than 90% by weight)	5 (herbicidal effect of not less than 90% by weight)	5 (herbicidal effect of not less than 90% by weight)
